Reference: paper PMC6630837 (Pharmaceuticals, 2019)
“Also recorded” adds a separate entry of the source.

Columns and labels:
[1] = molecular target: T1, butyrylcholinesterase (BuChE) (Equus caballus, UniProt P81908); assay: biochemical; details: for inhibition at 100 µM: read-out: BuChE inhibitory efficacy (percentage of inhibition)
T1 construct: (BuChE, equine serum); from tissue; host or cells: equine serum
Description: Experimental procedures for cholinesterase inhibition a s sa y s. For cholinesterase inhibition tests (acetylcholinesterase (AChE, electrophorus
el ec t r ic u s) a n d b ut yr ylcholinesterase (BuChE, equine serum), the Ellman’s cholorimetric assay1 was followed, with minor modifications. DMSO
was kept within 1.25% cuvette concentration. The chromogenic agent DTNB [5,5’-dithiobis(2-nitrobenzoic acid)] was fixed at 0.975 mM
con centration; 0. 1 M phosphate buffer (pH 8. 0) was employed, T = 25 °C, and the reaction was monitored for 125 s. […]
of inhibition, the substrate concentration (acetylthiocholine iodide for AChE; S- butyr ylthiocholine iodide for BuChE) was fixed at 29 µM for
AChE and at 18.2 µM concentration for BuChE.
Lineweaver-Burk plot (or double reciprocal plot, 1/V vs . 1/ [S ]) wa s u se d for estimating both, the mode of inhibition and the inhibition constants […]
Competitive inhibition (inhibitor only bonds the free enzyme):
KKiiii = [II ]KKMM iiaaaa
M i xe d inhibition (inhibitor binds both, the free and the complexed enzyme) :
Uncompetitive (the inhibitors only binds the complexed enzyme):
N on -competitive (inhibitor binds both the free enzyme and the complexed enzyme with equal affinity) :
Table S3. […]
of the synthesized flavone analogues at 100 µ M.
C omp ou n d N o. AChE B uChE

[2] = LogD7.4 determination (octan-1-ol/phosphate buffer, LC-MS); type: physicochemical; details: octan-1-ol/phosphate buffer, pH 7.4, octan-1-ol/phosphate buffer pH 7.4, 25 °C; read-out: Log D7.4 (partition coefficient at pH 7.4)
Description: LogD7.4 determination. The in-silico prediction tool ALOGPS [4] was used to estimate the octanol-water partition coefficients (log P) of the compounds. […] For each category, two different ratios (volume of octan-1-ol to volume of buffer) were defined as experimental parameters (Table 2).
Equal amounts of phosphate buffer (0.1 M, pH 7.4) and octan-1-ol were mixed and shaken vigorously for 5 min to saturate the phases. The mixture was left until separation of the two phases, and the buffer was retrieved. Stock solutions of the test compounds were diluted with buffer to a concentration of 1 μM. For each compound, three determinations per octan-1-ol:buffer ratio were performed in different wells of a 96-well plate. The respective volumes of buffer-containing analyte (1 μM) were pipetted to the wells and covered by saturated octan-1-ol according to the chosen volume ratio. […] The aqueous phase was transferred to a 96-well plate for analysis by liquid chromatography-mass spectrometry (LCMS, see below).
Results are presented as the mean ± SD of three independent experiments.
LC-MS measurements. […] The system was controlled with the Agilent MassHunter Workstation Data Acquisition software (version B.01.04). The column used was an AtlantisR T3 C18 column (2.1 × 50 mm) with a 3 μm-particle size (Waters Corp., Milford, MA, USA). The mobile phase consisted of eluent A: 10 mM ammonium acetate, pH 5.0 in 95:5, H2O:MeCN; and eluent B: MeCN containing 0.1% formic acid. The flow rate was maintained at 0.6 mL/min. […] MS parameters such as fragmentor voltage, collision energy, and polarity were optimized individually for each drug, and the molecular ion was followed for each compound in the multiple reaction monitoring mode. The concentrations of the analytes were quantified by the Agilent Mass Hunter Quantitative Analysis software (version B.01.04).

[3] = tested on: SH-SY5Y human neuroblastoma cells; assay: Neuroprotection against Aβ1-42-induced toxicity, MTT cell viability assay; type: cell-based; details: 50 μM compound, 20 μM Aβ1-42, 24 h, 37 °C
Description: Neuroprotective activity assays against Aβ1-42-induced toxicity. From all compounds tested in the above presented assay, the pair 8 and 19 presented the strongest neuroprotective potential, with convincing proof on the importance of the aglycone for the desired neuroprotective effects against H2O2-induced cell injury. […] Here, the MTT assay was used once again to assess cell viability of SH-SY5Y cells treated with 20 μM of Aβ1-42, in the presence of 50 μM of each compound. Similar protocols have been used to screen candidates for AD therapy. Moreover, based on the existing evidence that in situ spontaneous fibrillization of Aβ1-42 in the incubation mixture is important in the triggering of neurotoxic effects, we added the Aβ1-42 peptide fragment dissolved in DMSO to the culture medium prior to incubation, together with each compound in study. […] Even though there is published evidence that undifferentiated SH-SY5Y cells are not as sensitive to Aβ1-42-induced neurite degeneration and apoptosis as differentiated ones, with 20 μM of Aβ1-42 we were able to observe a significant decrease in cellular MTT reduction capacity, corresponding to roughly half of the cell viability rates observed in the non-treated control.
(§1) Neuroprotective assays in human neuroblastoma (SH-SY5Y) cells. […] Differences were considered significant when P < 0.05.

[4] = molecular target: acetylcholinesterase (AChE) (Electrophorus electricus, UniProt O42275); assay: Acetylcholinesterase inhibition, Ellman's colorimetric assay; type: biochemical; details: 100 µM compound
Description: For cholinesterase inhibition tests (acetylcholinesterase (AChE, electrophorus
was kept within 1.25% cuvette concentration.
AChE and at 18.2 µM concentration for BuChE. […]

[5] = tested on: SH-SY5Y neuroblastoma cells; assay: Cytotoxic activity of compounds alone, MTT cell viability assay; details: 50 μM compound alone, 24 h, 37 °C, 0.5% DMSO, SH-SY5Y
Description: Neuroprotective assays in human neuroblastoma (SH-SY5Y) cells. SH-SY5Y cells were grown in Dulbecco’s Modified Eagle Medium (DMEM, Gibco, Life Technologies) supplemented with 10% fetal bovine serum (FBS, Biochrom GmbH) and 1% Penicillin-Streptomycin (Gibco, Life Technologies) in a humidified incubator at 37 °C, 5% CO2. For the neuroprotective activity assay, undifferentiated SGSY-5Y cells were plated onto 96-well flat-bottomed microtiter plates at a density of 1 × 10^4 cells/well in DMEM supplemented with 2% FBS and preincubated for 24 h at 37 °C, 5% CO2. Compounds (stored as 10 mM solutions in DMSO at −20 °C) were then added to achieve a final concentration of 50 μM and, after 30 min, cells were incubated in the presence or absence of 20 μM Aβ protein fragment 1-42 (Sigma-Aldrich, dissolved in DMSO and stored in 2 mM aliquots at −20 °C) or 100 μM of H2O2 (Sigma-Aldrich, dissolved to 10 mM in 0.9% NaCl aqueous solution immediately prior to the assay) overnight at 37 °C, 5% CO2. […] The following morning, 20 μL of a 5 mg/mL solution of 3-(4,5-dimethylthiazol-2-yl)-2,5-diphenyltetrazolium bromide (MTT, Sigma-Aldrich) in PBS (Gibco, Life Technologies) was added to each well and the plates were further incubated for 4 h at 37 °C, followed by the addition of DMSO (200 μL) to each well in order to dissolve the resulting formazan crystals. After 2 h incubating at 37 °C, the optical density (OD) at 540 nm (with a 620 nm reference filter) was measured in an Amersham Biosciences Biotrak II Plate Reader. The percentage of MTT reduction was determined according to Equation (1). […] Differences between experimental conditions were compared for statistical significance by one-way ANOVA followed by a Tukey’s post-test, an analysis carried out using GraphPad Prism Software (LA Jolla, CA, USA). Differences were considered significant when P < 0.05. In order to exclude direct MTT reduction, compounds were also tested in (a) the absence of cells and (b) in the absence of both cells and culture medium, using the same experimental conditions described above. (2) MTT Reduction (% of Control)=[ODsample−ODmedium/ODcell control−ODmedium] × 100 […]
Tabl e S2. Cytotoxic activity of each compound assessed in SH-SY5Y neuroblastoma cells via an MTT cell viability assay.a Comp ound Nr. MTT reduction (% control) p-va l u e vs . untreated cell control (unpai red t-t es t) […]
a Cells were incubated for 24 h at 37 °C, in the presence (50 μM) or absence of each compound.

[6] = type: in vitro ADME; details: PAMPA, pH 7.4, 16 h
Description: Parallel artificial membrane permeability assay (PAMPA). Effective permeability (log Pe) was determined in a 96-well format with PAMPA [34]. For each compound, measurements were performed at pH 7.4 in quadruplicates. Four wells of a deep well-plate were filled with 650 μL of PRISMA HT universal buffer, adjusted to pH 7.4 by adding the requested amount of NaOH (0.5 M). Samples (150 μL) were withdrawn from each well to determine the blank spectra by UV/Vis-spectroscopy (190 to 500 nm, SpectraMax 190, Molecular Devices, Silicon Valley, CA, USA). Then the analyte, dissolved in DMSO (10 mM), was added to the remaining buffer to yield 50 μM solutions. To exclude precipitation, the optical density (OD) was measured at 650 nm, and solutions exceeding OD 0.01 were filtrated. Afterwards, samples (150 μL) were withdrawn to determine the reference spectra. […] The filter membranes at the bottom of the acceptor plate were infused with 5 μL of GIT-0 Lipid Solution and 200 μL of Acceptor Sink Buffer were filled into each acceptor well. The sandwich was assembled, placed in the GutBox^TM, and left undisturbed for 16 h. Then, it was disassembled and samples (150 μL) were transferred from each donor and acceptor well to UV-plates for determination of the UV/Vis spectra.

[7] = tested on: SH-SY5Y human neuroblastoma cells; assay: Neuroprotection against H2O2-induced toxicity, MTT cell viability assay; type: cell-based; details: 50 μM compound, 100 μM H2O2, 24 h, 37 °C
Excerpt: Neuroprotective activity assays against H2O2-induced toxicity. On the basis of previously described protocols, the flavones and analogues herein synthesized were screened for their neuroprotective effects against H2O2-induced oxidative stress and neuronal damage in SH-SY5Y human neuroblastoma cells by means of a thiazolyl blue tetrazolium bromide (MTT) reduction-based cell viability assay.
as §1

T1 sequence (P81908 whole entry): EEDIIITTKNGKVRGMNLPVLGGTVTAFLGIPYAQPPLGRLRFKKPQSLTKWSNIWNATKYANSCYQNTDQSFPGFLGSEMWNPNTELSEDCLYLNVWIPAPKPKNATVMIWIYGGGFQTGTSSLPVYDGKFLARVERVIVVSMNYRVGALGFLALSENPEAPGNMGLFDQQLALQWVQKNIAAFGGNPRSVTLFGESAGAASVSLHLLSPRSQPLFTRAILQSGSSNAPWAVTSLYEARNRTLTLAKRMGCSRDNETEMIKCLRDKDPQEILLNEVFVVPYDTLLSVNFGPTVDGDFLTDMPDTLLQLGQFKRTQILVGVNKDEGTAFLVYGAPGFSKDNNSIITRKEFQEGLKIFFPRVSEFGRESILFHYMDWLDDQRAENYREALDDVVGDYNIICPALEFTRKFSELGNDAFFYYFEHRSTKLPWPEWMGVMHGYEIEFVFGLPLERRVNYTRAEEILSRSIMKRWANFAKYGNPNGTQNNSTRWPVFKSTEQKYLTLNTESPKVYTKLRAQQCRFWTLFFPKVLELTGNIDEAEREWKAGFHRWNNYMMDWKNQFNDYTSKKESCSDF
Sequence of acetylcholinesterase (AChE) (O42275 24-633): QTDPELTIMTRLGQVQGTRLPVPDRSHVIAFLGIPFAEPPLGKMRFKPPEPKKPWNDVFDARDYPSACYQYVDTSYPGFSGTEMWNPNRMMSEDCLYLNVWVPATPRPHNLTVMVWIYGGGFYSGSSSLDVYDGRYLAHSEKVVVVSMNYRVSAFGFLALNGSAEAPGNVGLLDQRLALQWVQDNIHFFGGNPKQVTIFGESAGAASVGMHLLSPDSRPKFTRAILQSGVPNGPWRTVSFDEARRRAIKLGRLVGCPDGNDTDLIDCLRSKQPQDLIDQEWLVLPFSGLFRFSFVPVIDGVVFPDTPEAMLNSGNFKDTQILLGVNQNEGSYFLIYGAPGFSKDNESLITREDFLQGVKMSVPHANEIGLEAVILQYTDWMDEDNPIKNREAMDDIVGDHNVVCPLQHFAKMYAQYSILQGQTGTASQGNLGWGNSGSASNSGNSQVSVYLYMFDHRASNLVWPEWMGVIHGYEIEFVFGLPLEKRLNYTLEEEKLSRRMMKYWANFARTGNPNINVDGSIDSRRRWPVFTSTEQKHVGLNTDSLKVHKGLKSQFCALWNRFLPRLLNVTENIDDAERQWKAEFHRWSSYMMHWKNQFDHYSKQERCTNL

| Compound | inhibition at 100 µM [1] [%] | logD [2] | Neuroprotective effect against Aβ1-42-induced toxicity (MTT cell viability) [3] | AChE inhibitory efficacy (percentage of inhibition) [4] | MTT reduction (% control) [5] [%] | Log Pe (effective permeability) [6] | Neuroprotective effect against H2O2-induced toxicity (MTT cell viability) [7] | BuChE inhibitory efficacy (percentage of inhibition) ([1]; 100 µM compound) | inhibition at 100 µM ([4]; read-out: AChE inhibitory efficacy (percentage of inhibition)) [%] |
| --- | --- | --- | --- | --- | --- | --- | --- | --- | --- |
| O=c1cc(-c2ccc(F)cc2)oc2cc(O)cc(O)c12 [Compound 7, 4′-Fluoro-5,7-dihydroxyflavone] | 23 | > 2.5 | contrarily | n.i . | 109.4 ± 11.4 | – | – | – | – |
| O=c1cc(-c2ccc(F)cc2)oc2c([C@@H]3O[C@H](CO)[C@@H](O)[C@H](O)[C@H]3O)c(O)cc(O)c12 [Compound 18, 4′-Fluoro-8-(β-D-glucopyranosyl)-5,7-dihydroxyflavone] | – | -0.2 ± 0.1 | – | – | 136.7 ±12.9 | no detectable permeability; also recorded: Below detection limit | – | – | – |
| O=c1ccoc2c([C@@H]3O[C@H](CO)[C@@H](O)[C@H](O)[C@H]3O)c(O)cc(O)c12 [Compound 22, 8-(β-D-Glucopyranosyl)-5,7-dihydroxy-4H-chromen-4-one] | 19 | -2 ± 0.2 | – | n.i . | 149.2 ± 21.6 | – | no significant differences | – | – |
| O=c1cc(-c2ccc(N3CCOCC3)cc2)oc2cc(O)cc(O)c12 [Compound 8, 5,7-Dihydroxy-4′-(morpholin-4-yl)flavone] | – | > 2.5 | displayed relevant neuroprotective effects against Aβ1-42 | – | 57.6 ± 25.5 | – | able to produce statistically significant differences when compared to H2O2 controls | – | – |
| O=c1cc(-c2ccccc2)oc2c([C@@H]3O[C@H](CO)[C@@H](O)[C@H](O)[C@H]3O)c(O)cc(O)c12 [Compound 16, 8-(β-D-Glucopyranosyl)-5,7-dihydroxyflavone] | – | 0.8 ± 0.3 | – | – | 142.0 ± 38.5 | – | absence of significant effects | n.i . | 20 |
